# Laboratory results taken from US8080556B2, “2-amino pyrimidine compounds as potent HSP-90 inhibitors” (Pfizer Inc., priority 2008, dated 2011).
# System: Akt
# Assay: Akt Lum
# Format: cell-based
row,Structure (SMILES),IC50
1,"CC(F)(F)CNC(=O)N1Cc2nc(N)nc(-c3c(Cl)cc(Cl)cc3OCCn3cc(C#N)cn3)c2C1 [Example 11, 2-amino-4-{2,4-dichloro-6-[2-(4-cyano-1H-pyrazol-1-yl)ethoxy]phenyl}-N-(2,2-difluoropropyl)-5,7-dihydro-6H-pyrrolo[3,4-d]pyrimidine-6-carboxamide]",2550 nM
2,"Nc1nc2c(c(-c3c(Cl)cc(Cl)cc3OCCn3ccc(C(F)(F)F)n3)n1)CN(C(=O)NC1CC1)C2 [Example 13, 2-amino-N-cyclopropyl-4-(2,4-dichloro-6-{2-[3-(trifluoromethyl)-1H-pyrazol-1-yl]ethoxy}phenyl)-5,7-dihydro-6H-pyrrolo[3,4-d]pyrimidine-6-carboxamide]",660 nM
3,"Nc1nc2c(c(-c3c(Cl)cc(Cl)cc3OCCn3nccc3C(F)(F)F)n1)CN(C(=O)NC1CC1)C2 [Example 14, 2-amino-N-cyclopropyl-4-(2,4-dichloro-6-{2-[5-(trifluoromethyl)-1H-pyrazol-1-yl]ethoxy}phenyl)-5,7-dihydro-6H-pyrrolo[3,4-d]pyrimidine-6-carboxamide]",6690 nM
4,"Cc1cc(C(F)(F)F)nn1CCOc1cc(Cl)cc(Cl)c1-c1nc(N)nc2c1CN(C(=O)NC1CC1)C2 [Example 16, 2-amino-N-cyclopropyl-4-(2,4-dichloro-6-{2-[5-methyl-3-(trifluoromethyl)-1H-pyrazol-1-yl]ethoxy}phenyl)-5,7-dihydro-6H-pyrrolo[3,4-d]pyrimidine-6-carboxamide]",9960 nM
5,"Nc1nc2c(c(-c3c(Cl)cc(Cl)cc3OCCn3cc(Br)cn3)n1)CN(C(=O)NC1CC1)C2 [Example 12, 2-amino-4-{2-[2-(4-bromo-1H-pyrazol-1-yl)ethoxy]-4,6-dichlorophenyl}-N-cyclopropyl-5,7-dihydro-6H-pyrrolo[3,4-d]pyrimidine-6-carboxamide]",175 nM
6,"Cc1cc(C(F)(F)F)n(CCOc2cc(Cl)cc(Cl)c2-c2nc(N)nc3c2CN(C(=O)NC2CC2)C3)n1 [Example 15, 2-amino-N-cyclopropyl-4-(2,4-dichloro-6-{2-[3-methyl-5-(trifluoromethyl)-1H-pyrazol-1-yl]ethoxy}phenyl)-5,7-dihydro-6H-pyrrolo[3,4-d]pyrimidine-6-carboxamide]",18300 nM

# Stronger by IC50, values ahead:
row,IC50,Structure (SMILES)
1,111 nM,"Nc1nc2c(c(-c3c(Cl)cc(Cl)cc3OCCn3cc(F)cn3)n1)CN(C(=O)NC1CC1)C2 [Example 10, 2-amino-N-cyclopropyl-4-{2,4-dichloro-6-[2-(4-fluoro-1H-pyrazol-1-yl)ethoxy]phenyl}-5,7-dihydro-6H-pyrrolo[3,4-d]pyrimidine-6-carboxamide]"
2,20.9 nM,"Cc1cc(Cl)cc(OCCn2cc(F)cn2)c1-c1nc(N)nc2c1CN(C(=O)NC13CC(C1)C3)C2 [Example 7, 2-amino-N-bicyclo[1.1.1]pent-1-yl-4-{4-chloro-2-[2-(4-fluoro-1H-pyrazol-1-yl)ethoxy]-6-methylphenyl}-5,7-dihydro-6H-pyrrolo[3,4-d]pyrimidine-6-carboxamide]"
3,52.5 nM,Cc1cc(Cl)cc(OCCn2cccn2)c1-c1nc(N)nc2c1CN(C(=O)NC13CC(C1)C3)C2 [Example 3]
4,104 nM,"Nc1nc2c(c(-c3c(Cl)cc(Cl)cc3OCCn3cc(Cl)cn3)n1)CN(C(=O)NC1CC1)C2 [Example 2, 2-amino-N-cyclopropyl-4-{2,4-dichloro-6-[2-(4-chloro-1H-pyrazol-1-yl)ethoxy]phenyl}-5,7-dihydro-6H-pyrrolo[3,4-d]pyrimidine-6-carboxamide]"
